How the values were obtained:
[1] = biological target: T1, Coagulation factor XI (Homo sapiens, UniProt P03951); test: Inhibition of FXIa (unknown origin)
[2] = biological target: T2, Plasma kallikrein (Homo sapiens, UniProt P03952)
[3] = in vivo; details: rat, iv, 0.3 mg/kg
[4] = in vivo; details: rhesus monkey, iv, 3 mg/kg
[5] = biological target: T1, Coagulation factor XI; test: Binding affinity to FXIa (unknown origin) assessed as inhibition constant
[6] = biological target: T2, Plasma kallikrein; test: Binding affinity to PKal (unknown origin) assessed as inhibition constant
[7] = biological target: T1, Coagulation factor XI; test: Inhibition of human FXIa by absorbance based analysis
[8] = Half life in IG dosed Beagle dog measured upto 24 hrs by LC/MS analysis; type: ADME, organism-based, Canis lupus familiaris; details: in vivo, po
[9] = Oral bioavailability in Beagle dog measured upto 24 hrs by LC/MS analysis; type: ADME, organism-based, Canis lupus familiaris; details: in vivo
[10] = tested on: Plasma; test: Anticoagulant activity in human plasma assessed as concentration required to 1.5 times activation of partial thromboplastin time; type: functional
[11] = biological target: T1, Coagulation factor XI; test: Inhibition of human FXIa
[12] = biological target: Prothrombin (Homo sapiens, UniProt P00734); test: Inhibition of human thrombin
[13] = biological target: Trypsin (Homo sapiens, UniProt P07477+P07478+P35030); test: Inhibition of human trypsin; type: protein assay
[14] = Half life in human at 0.6 mg/kg, iv administered for 5 days; type: ADME, organism-based; details: in vivo, time 5 day
[15] = tested on: Plasma; test: Anticoagulant activity in human plasma assessed as concentration required to double the activated partial thromboplastin time; type: functional
[16] = biological target: Complement factor D (Homo sapiens, UniProt P00746); test: Inhibition of FD (unknown origin)
Complement factor D, sequence (P00746 whole entry): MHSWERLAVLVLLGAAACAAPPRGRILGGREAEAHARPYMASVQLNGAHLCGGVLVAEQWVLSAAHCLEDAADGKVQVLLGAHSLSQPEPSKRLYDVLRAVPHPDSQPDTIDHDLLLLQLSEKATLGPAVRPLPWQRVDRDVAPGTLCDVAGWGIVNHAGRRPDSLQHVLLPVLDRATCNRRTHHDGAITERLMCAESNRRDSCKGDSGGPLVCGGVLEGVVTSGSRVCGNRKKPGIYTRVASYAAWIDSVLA

[17] = Half life in mouse; type: ADME, organism-based; details: in vivo
[18] = Clearance in mouse; type: ADME, organism-based; details: in vivo
[19] = Oral bioavailability in mouse; type: ADME, organism-based; details: in vivo
[20] = Selectivity index, ratio IC50 for FXIa (unknown origin) to IC50 for FD (unknown origin)
[21] = tested on: Plasma; test: Anticoagulant activity in human plasma assessed as concentration required to double the prothrombin time; type: functional
[22] = Clearance in Sprague-Dawley rat at 1 mg/kg, iv; type: ADME, organism-based; details: in vivo
[23] = Half life in Sprague-Dawley rat at 1 mg/kg, iv; type: ADME, organism-based; details: in vivo
[24] = MRT in iv dosed rat measured upto 8 hrs by LC-MS/MS analysis; type: ADME, organism-based; details: in vivo
[25] = Oral bioavailability in Sprague-Dawley rat incubated upto 24 hrs by LC-MS/MS analysis; type: ADME, organism-based; details: in vivo
[26] = Metabolic stability in mouse liver microsomes assessed as half life; type: ADME, Microsome
[27] = Metabolic stability in dog liver microsomes assessed as half life; type: ADME, Canis lupus familiaris, Microsome

T2 sequence (P03952 20-390 limits assumed): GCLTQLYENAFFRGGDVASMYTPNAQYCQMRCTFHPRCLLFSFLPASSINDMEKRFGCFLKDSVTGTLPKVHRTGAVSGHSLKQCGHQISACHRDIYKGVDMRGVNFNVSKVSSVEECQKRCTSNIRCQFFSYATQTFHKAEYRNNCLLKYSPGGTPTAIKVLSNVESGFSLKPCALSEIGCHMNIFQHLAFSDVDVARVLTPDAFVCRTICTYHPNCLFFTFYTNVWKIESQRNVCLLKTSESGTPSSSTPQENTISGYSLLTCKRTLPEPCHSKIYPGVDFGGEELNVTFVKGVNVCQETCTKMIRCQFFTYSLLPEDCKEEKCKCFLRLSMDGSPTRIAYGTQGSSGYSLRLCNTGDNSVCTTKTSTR
T2 sequence (P03952 391-638 limits assumed): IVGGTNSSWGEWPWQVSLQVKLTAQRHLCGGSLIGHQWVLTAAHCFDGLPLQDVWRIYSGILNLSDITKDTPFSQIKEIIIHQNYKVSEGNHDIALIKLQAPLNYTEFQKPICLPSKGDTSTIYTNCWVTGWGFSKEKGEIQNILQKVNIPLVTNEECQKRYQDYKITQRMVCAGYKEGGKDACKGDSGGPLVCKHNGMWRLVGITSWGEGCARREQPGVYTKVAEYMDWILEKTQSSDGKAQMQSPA
T1 sequence (P03951 19-387 limits assumed): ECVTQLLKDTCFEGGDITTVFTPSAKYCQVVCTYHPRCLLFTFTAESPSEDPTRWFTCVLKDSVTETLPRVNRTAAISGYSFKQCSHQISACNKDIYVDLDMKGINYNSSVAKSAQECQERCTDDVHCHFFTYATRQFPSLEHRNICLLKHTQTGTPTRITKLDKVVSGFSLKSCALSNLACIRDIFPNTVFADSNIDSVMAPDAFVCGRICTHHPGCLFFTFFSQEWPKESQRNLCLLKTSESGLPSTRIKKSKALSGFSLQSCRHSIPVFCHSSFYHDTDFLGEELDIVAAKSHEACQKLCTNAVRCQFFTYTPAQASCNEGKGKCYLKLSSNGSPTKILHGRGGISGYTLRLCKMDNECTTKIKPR
T1 sequence (P03951 388-625 limits assumed): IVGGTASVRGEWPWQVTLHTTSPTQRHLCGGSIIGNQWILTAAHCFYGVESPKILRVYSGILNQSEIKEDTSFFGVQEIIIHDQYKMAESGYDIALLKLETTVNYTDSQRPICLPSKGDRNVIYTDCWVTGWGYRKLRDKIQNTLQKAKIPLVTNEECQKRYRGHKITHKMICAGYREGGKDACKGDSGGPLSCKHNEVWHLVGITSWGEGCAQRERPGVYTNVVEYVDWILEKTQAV

SMILES: C[C@H]1COc2cn([C@@H](CC3CCCCO3)C(=O)Nc3ccc(C(N)=O)cc3)c(=O)cc2-c2c(ccc(Cl)c2F)C1 (stereo not given in full)
- IC50 [1]: 1.7 nM
- IC50 [2]: 60 nM

SMILES: CC[C@@H](C(=O)Nc1ccc(C(N)=O)c(F)c1)n1cc(OC)c(-c2cc(Cl)ccc2-n2cc(Cl)nn2)cc1=O
- clearance [3]: 13.3 mL/min/kg
- clearance [4]: 5.5 mL/min/kg

SMILES: COC(=O)NCC[C@@H]1Cc2cccc(c2)[C@@H](n2cnc(-c3cc(Cl)ccc3-n3cc(C(F)(F)F)cn3)cc2=O)CCC[C@@H](C)C(=O)N1
- Ki [5]: 5 nM
- Ki [6]: 1790 nM

SMILES: CC[C@@H](NC(=O)N1C(=O)[C@H](Cc2ccnc(N)c2)[C@H]1C(=O)O)c1ccccc1
- IC50 [1]: < 10 nM

SMILES: COc1nn([C@@H](Cc2ccccc2)C(=O)Nc2ccc(C(=O)O)cc2)c(=O)cc1-c1cc(Cl)ccc1C(C)=O
- Ki [2]: 103 nM
- Ki [7]: 1.6 nM
- half-life [8]: 4.5 h
- bioavailability [9]: 49.6%

SMILES: C[C@@H]1CCC[C@H](n2cnc(-c3cc(Cl)ccc3-n3cc(Cl)nn3)cc2=O)c2cc(ccn2)-c2c(cnn2C(F)F)NC1=O [MILVEXIAN]
- EC [10]: 0.5 µM

SMILES: C[C@@H](NC(=O)N1C(=O)[C@H](Cc2ccnc(N)c2)[C@H]1C(=O)O)C1CCCCC1 [FRUNEXIAN]
- IC50 [11]: 7.1 nM
- IC50 [12]: > 20000 nM
- IC50 [13]: > 4800 nM
- half-life [14]: 0.75 h

SMILES: CC[C@@H](C(=O)Nc1ccc(C(N)=O)c(F)c1)n1cc(OC)c(-c2cc(Cl)ccc2-n2cc(C(F)(F)F)nn2)cc1=O
- clearance [3]: 13.8 mL/min/kg
- clearance [4]: 2 mL/min/kg

SMILES: Nc1ccc(-c2cnc(Cn3c4c(c(-c5cc(Cl)ccc5-n5cnnn5)cc3=O)OCC4)[nH]2)c(F)n1
- IC50 [1]: 1.6 nM

SMILES: C[C@@H]1CCC[C@H](n2cnc(-c3cc(Cl)ccc3-n3cnnn3)cc2=O)c2cc(c3c(n2)OCCO3)-c2c(cnn2C)NC1=O
- IC50 [1]: 10.4 nM

SMILES: CC(C)c1cc(-c2ccc3c(c2)[C@H](N)CO3)cc([C@@H](O)CN2CCc3cccc(C(=O)O)c32)c1
- IC50 [1]: 0.4 nM
- IC50 [2]: 1 nM
- EC [15]: 1.3 µM
- IC50 [16]: > 5000 nM
- half-life [17]: 3.73 h
- clearance [18]: 11 mL/min/kg
- bioavailability [19]: 100%
- Ratio IC50 [20]: 10000
- EC [21]: 28.7 µM

SMILES: O=C(O)c1ccc(NC(=O)[C@H](Cc2ccccc2)n2cnc(-c3cc(Cl)ccc3-n3cc(Cl)nn3)cc2=O)cc1
- IC50 [1]: 2.5 nM
- IC50 [2]: 189 nM

SMILES: O=C(O)c1cc2cc(NC(=O)[C@H](Cc3ccc(N4CCN(C5CCC(O)CC5)CC4=O)cc3)N3CCN(c4cc(Cl)ccc4-n4cnnn4)C(=O)C3=O)ccc2[nH]1 (stereo not given in full)
- clearance [22]: 33.3 mL/min/kg
- EC [15]: 1.1 µM
- IC50 [7]: 1.75 nM
- half-life [23]: 0.46 h

SMILES: COc1cn(C(Cc2ccccc2)c2nc3cc(C(=O)O)ccc3[nH]2)c(=O)cc1-c1cc(Cl)ccc1-n1cnnn1 (stereo not given)
- IC50 [1]: 3 nM

SMILES: O=C(O)c1cc2cc(NC(=O)[C@@H]3CCc4cc(-c5cc(Cl)ccc5-n5cnnn5)cc(=O)n43)ccc2[nH]1
- IC50 [1]: 6.4 nM

SMILES: COC(=O)Nc1ccc2c(c1)NC(=O)[C@H](C)CCC[C@H](c1ccc(-c3cc(Cl)ccc3-n3cc(C(F)(F)F)cn3)c[n+]1[O-])c1nc-2c(C)[nH]1
- MRT [24]: 11 h
- IC50 [1]: 0.9 nM
- IC50 [2]: 42 nM

SMILES: COCC[C@@H](C(=O)Nc1ccc2nn(C)cc2c1)N1CC(=O)N(c2cc(Cl)ccc2-n2cc(Cl)nn2)CC1=O
- EC [15]: 5.3 µM
- half-life [23]: 1.5 h
- bioavailability [25]: 72.5%
- half-life [26]: > 5 h
- half-life [27]: > 15 h
